In ChEMBL document CHEMBL1121511, “Antileukemic compounds derived from the chemical modification of macrocyclic trichothecenes. 1. Derivatives of verrucarin A” (1980):

Tested on: P388
Assay: Antileukemic activity in vivo against P-388 mouse leukemia cell expressed as Dose
Assay type: functional

CC(=O)OC1C(=O)OC[C@]23CC[C@H](C)C[C@H]2O[C@@H]2C[C@@H](OC(=O)/C=C\C=C\C(=O)OCCC1C)[C@@]3(C)C21CO1 (stereo partly specified) [VERRUCARIN A ACETATE]
Dose: >1
